Measured values reported in PMC5697638, “Identification of a Potent Phosphoinositide 3‐Kinase Pan Inhibitor Displaying a Strategic Carboxylic Acid Group and Development of Its Prodrugs” (Chemmedchem, 2017).

Biological target: T1, hPI3K‐c2γ (PIK3C2G) (Homo sapiens, UniProt O75747)
T1 construct: purchased ProQinase, Germany 1207‐0000‐1
T1 sequence (O75747 1-1486): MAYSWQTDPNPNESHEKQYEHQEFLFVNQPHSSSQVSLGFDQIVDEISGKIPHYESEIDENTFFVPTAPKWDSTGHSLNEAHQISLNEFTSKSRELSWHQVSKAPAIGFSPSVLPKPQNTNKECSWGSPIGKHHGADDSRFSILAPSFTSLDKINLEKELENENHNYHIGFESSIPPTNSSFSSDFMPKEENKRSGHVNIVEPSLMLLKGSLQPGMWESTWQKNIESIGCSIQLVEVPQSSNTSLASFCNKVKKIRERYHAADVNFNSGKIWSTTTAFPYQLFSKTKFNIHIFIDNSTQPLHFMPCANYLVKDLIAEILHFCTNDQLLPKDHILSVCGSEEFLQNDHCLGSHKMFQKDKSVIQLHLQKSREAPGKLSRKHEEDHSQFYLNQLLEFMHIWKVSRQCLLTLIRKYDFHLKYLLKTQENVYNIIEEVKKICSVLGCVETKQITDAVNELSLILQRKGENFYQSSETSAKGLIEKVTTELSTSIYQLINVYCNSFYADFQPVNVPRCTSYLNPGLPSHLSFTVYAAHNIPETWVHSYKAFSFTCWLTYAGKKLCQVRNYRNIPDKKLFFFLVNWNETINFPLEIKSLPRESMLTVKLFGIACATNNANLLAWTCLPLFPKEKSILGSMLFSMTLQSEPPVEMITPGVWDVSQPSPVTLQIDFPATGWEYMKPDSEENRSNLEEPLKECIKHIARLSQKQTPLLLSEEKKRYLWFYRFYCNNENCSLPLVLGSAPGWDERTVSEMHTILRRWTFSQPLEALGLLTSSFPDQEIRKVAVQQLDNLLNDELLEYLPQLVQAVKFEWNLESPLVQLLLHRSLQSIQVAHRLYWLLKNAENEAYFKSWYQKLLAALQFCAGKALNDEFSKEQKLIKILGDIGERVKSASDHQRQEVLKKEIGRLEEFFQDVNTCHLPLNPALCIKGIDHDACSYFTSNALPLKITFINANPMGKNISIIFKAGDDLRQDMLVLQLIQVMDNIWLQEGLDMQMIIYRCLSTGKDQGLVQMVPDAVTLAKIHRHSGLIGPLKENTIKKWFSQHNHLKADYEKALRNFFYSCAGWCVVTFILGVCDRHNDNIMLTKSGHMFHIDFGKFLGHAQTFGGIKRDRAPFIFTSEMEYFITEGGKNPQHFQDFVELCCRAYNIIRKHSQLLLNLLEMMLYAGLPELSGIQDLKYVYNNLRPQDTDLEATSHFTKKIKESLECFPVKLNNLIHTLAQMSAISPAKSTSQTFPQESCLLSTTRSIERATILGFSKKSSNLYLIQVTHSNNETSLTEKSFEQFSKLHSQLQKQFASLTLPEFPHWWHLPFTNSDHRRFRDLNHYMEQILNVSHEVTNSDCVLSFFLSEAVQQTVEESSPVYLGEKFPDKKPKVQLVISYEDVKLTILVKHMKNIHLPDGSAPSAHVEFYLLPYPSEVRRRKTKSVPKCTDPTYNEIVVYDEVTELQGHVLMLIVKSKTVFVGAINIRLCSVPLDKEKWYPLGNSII
Assay: lipid kinase assay (ADP-Glo), PI3K-C2γ
Type: biochemical
Settings: Table 2; mean of at least three determinations, 95 % confidence intervals; read-out: IC50 PI3Kc2γ
Procedure: In vitro selection, lipid kinase assay: To determine the inhibitory activity of the new molecular entities on PI3K enzyme, a lipid kinase assay was performed: recombinant proteins (30 ng), human PI3Kα (PIK3CA/PIK3R1, #1161‐1165‐1 ProQinase–Germany), hPI3Kβ (PIK3CB wt/PIK3R1, #1168‐1165‐1 ProQinase, Germany), hPI3Kγ (PIK3CG, #1163‐0000‐1 ProQinase, Germany), hPI3Kδ (PIK3CD/PIK3R1, #1162–1165‐1 ProQinase, Germany), hPI3K‐C2α (PIK3C2A, #14‐906 Merck Millipore_Merck KGaA, Germany), hPI3K‐C2β (PIK3C2B, #14‐907 Merck Millipore_Merck KGaA, Germany), hPI3K‐c2γ (PIK3C2G, #1207‐0000‐1 ProQinase, Germany), and hVps34 (PIK3C3, #1160‐0000‐1 ProQinase, Germany), were incubated in kinase buffer {12.5 μL; 20 mM Tris‐HCl pH 7.5, 10 mM MgCl2, 10 μM ATP, 0.05 mg mL^−1 BSA, 0.5 mM EDTA, 5 mM HEPES pH 7.5, for PI3Kα,PI3Kβ, PI3Kγ, PI3Kδ, PI3KC‐2α, and PI3KC‐2γ; 15 mM MnCl2, 5 mM EGTA, 100 μM ATP, 50 mM HEPES pH 7.5, 100 mM NaCl, and 0.03 % CHAPS for PI3K‐C2β and VPS34 {BSA=bovine serum albumin; EDTA=ethylenediaminetetraacetic acid; HEPES=4‐(2‐hydroxyethyl)‐1‐piperazineethanesulfonic acid; EGTA=ethylene glycol‐bis(2‐aminoethylether)‐N,N,N′,N′‐tetraacetic acid; CHAPS=3‐[(3‐cholamidopropyl)dimethylammonio]‐1‐propanesulfonate}. In the reaction, the ATP concentration used for different PI3Ks was defined on the basis of the Michaelis–Menten kinetics of each enzyme, provided by the supplier. […]

How did the IC50 turn out when O=C(O)c1cccc(Cn2cc(-c3cccc4c(=O)cc(N5CCOCC5)[nH]c34)nn2)c1 [Compound 37, 3‐{[4‐(2‐Morpholino‐4‐oxo‐1,4‐dihydroquinolin‐8‐yl)‐1H‐1,2,3‐triazol‐1‐yl]methyl}benzoic acid] was run?
The IC50 was 2.8 ± 0.7 µM.
